Experimental data reported in patent US10961222B2, “Chemical compound of isocitrate dehydrogenase inhibitor, and application thereof” (NANJING SANHOME PHARMACEUTICAL CO., LTD., priority 2016, dated 2021).

Experiments:
[1] = test system: human acute myeloid leukemia AM7577 cells; test: Human acute myeloid leukemia NOD/SCID animal model: survival; assay type: in vivo, NOD/SCID mice; conditions: gavage once a day for 14 days, 14 days after administration
Source text: 1.1 Compounds to be tested: the compounds of the present disclosure prepared in the above examples, each of which was formulated into a solution in corresponding concentrations by using a vehicle (2% absolute ethanol:10% Solutol™: 88% physiological saline (v/v/v)).
1.2 Cells: human acute myeloid leukemia AM7577 cells, provided by Sino-American Crown Biotechnology (Beijing) Co., Ltd
1.4 Animals: NOD/SCID mice, 3-4 weeks old, female, purchased from Beijing Huakangkang Biotechnology Co., Ltd
Each mouse was inoculated through the tail vein at an amount of 2×10^6 cells resuspended in 100 uL of PBS.
Orbital blood samples of animals were collected weekly, labeled with human CD45, and the percentage of positive cells was detected. The animals were grouped when the percentage of peripheral blood CD45+ cells reached 5%. The proportion of peripheral blood CD45+ cells reached 5% on the 40th day after inoculation. After grouping, drugs were administered by gastric gavageonce once a day for 14 days.
The mortality rate of the animals after administration and the survival period of the surviving animals were observed.

[2] = molecular target: T1, U87-MG cell line of overexpressed mutant IDH2 (R140Q) (Homo sapiens, UniProt P48735, R140Q); test: Cell activity in vitro: 2-HG in culture supernatant of U87-MG (IDH2-R140Q) cells by LC-MS/MS; assay type: cell-based
T1 construct: expressed in transfected cells
T1 sequence (P48735 40-452 R140Q): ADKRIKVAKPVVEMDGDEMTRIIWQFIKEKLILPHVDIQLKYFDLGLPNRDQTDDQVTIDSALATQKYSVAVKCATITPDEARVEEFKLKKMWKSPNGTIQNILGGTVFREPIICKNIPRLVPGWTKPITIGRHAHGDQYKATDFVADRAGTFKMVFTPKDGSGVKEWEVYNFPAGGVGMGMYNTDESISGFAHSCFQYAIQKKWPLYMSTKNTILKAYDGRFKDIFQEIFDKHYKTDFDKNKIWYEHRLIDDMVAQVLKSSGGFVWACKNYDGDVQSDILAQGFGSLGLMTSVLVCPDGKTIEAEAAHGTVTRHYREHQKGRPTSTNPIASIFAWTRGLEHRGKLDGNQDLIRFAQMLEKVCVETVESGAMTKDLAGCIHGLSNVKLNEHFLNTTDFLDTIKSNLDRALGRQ
Description: 1.2 Cells: human glioblastoma cell line U87-MG, purchased from the American Type Culture Collection (ATCC);
Cell recovery: U87-MG (IDH2-R140Q) cells and U87-MG cells were put into a 37° C. water bath, then transferred to 15 mL of pre-warmed medium, centrifuged at 1000 rpm for 5 minutes, and the medium was discarded. The cells were resuspended in 15 mL of fresh medium, transferred to a T75 flask and cultured in a 37° C. incubator with 5% CO2. After 24 hours, the medium was changed to fresh medium.
Cell passage: The above-mentioned recovered cells were transferred to a 50 mL sterile centrifuge tube, centrifuged at 1000 rpm for 5 minutes, and the medium was discarded. The cells were resuspended evenly and counted. The cell density was adjusted appropriately in a 15 mL fresh medium, and then added to T75 culture flask. The culture flask was incubated in an incubator with 5% CO2 at 37° C.
After cells grown to a relatively high density in the culture dish, the cells were trypsinized, resuspended in medium (MEM+10% FBS), and counted. After adjusting the cell concentration, the resuspended cells were seeded in a 96-well plate at 5×10^3 cells per well. After inoculation, the cells were cultured for 24 hours until the cells adhered. The medium were sucked out, and the medium containing gradient concentration of compound was added, 100 μL per well. The cells were further cultured for 72 hours. The s 20 μL of upernatant was taken and put into a 2 mL 96-well sample-processing plate. 480 μL of dilution solution was added and shaken for mixing, and then centrifuged at 4500 rpm for 5 minutes. 200 μL of supernatant was transferred for LC-MS/MS injection analysis.
Column: Shim-pack XR-ODS 30L*2.0; mobile phase: acetonitrile-0.2% ammonia, 5 mM ammonium acetate aqueous solution; column temperature: 30° C.; flow rate: 0.4 mL/min; gradient elution conditions are as follows: […]
Atmospheric […] chemical ionization (APCI) was used. Source parameters was set as follows: IonSpray Voltage/IS-4500V; auxiliary gas 1 (Ion Source Gas 1/GS 1, N2), 55Arb; auxiliary gas 2 (Ion Source Gas 2, N2), 55Arb; auxiliary gas heating temperature (Temperature/TEM), 500° C.; curtain gas/CUR, 25Arb; collision gas/CAD, N2, 8 Pa.
Multi-ion reaction monitoring (MRM) in negative ion mode (Negative) was used. […] The internal standard (IS) MRM parameters: parent ion (Q 1 Mass), 178.0 Da; daughter ion (Q3 Mass), 149.0 Da; Decluster Potential (DP), −51V; collision voltage (Collision Energy/CE), −17 eV
By determining the 2-HG content in the cell culture supernatant of each well using LC-MS/MS, the mutant enzyme activity (2-HG remaining compared to untreated %) was calculated. The calculation formula: 2-HG remaining compared to untreated %=(Measured 2-HG level—U87-MG control 2-HG level)/(Untreated 2-HG level—U87-MG control 2-HG level)×100. […] Data were processed by GraphPad Prism v5.0 software and fitted to obtain IC50.

In the case of `CC(C)(O)CNc1nc(Nc2ccnc(C(F)(F)F)c2)nc(-c2cccc(C(F)(F)F)n2)n1` [AG-221, 2-methyl-1-(4-(6-(trifluoromethyl)pyridin-2-yl)-6-(2-(trifluoromethyl)pyridin-4-ylamino)-1,3,5-triazin-2ylamino)propan-2-ol, reference compound], the “Numbers of surviving animals” value ([1]; 15 mg/kg, 8 animals per group) is reported as 6, the “Numbers of surviving animals” value ([1]; 45 mg/kg, AG-221 group 4 animals, Example 22B group 8) is reported as 3 and the IC50 [2] is reported as 0.0302 µM.
